Source: patent US20110039793A1, “Application of ginsenoside Rb1 in preparing medicaments for treating dilated cardiomyopathy” (priority 2008, published 2011)

Assays:
Format in all cases: in vivo
[1] = test system: cTnT^R141W transgenic dilated cardiomyopathy mice model; assay: Left ventricular ultrastructure, electron microscopy; conditions: long-term administration
Excerpt: Effects on the left ventricular ultrastructure of the mice model with dilated cardiomyopathy after a long-term administration of ginsenoside Rb1 (electron microscopy)
Fresh myocardial tissues are fixed with 2.5% glutaraldehyde solution, then post-fixed by 1% osmic acid, embedded by Epon812 after the acetone gradient dehydration, wherein the embedded number is five Epon812 per case, ultra-thin sections are double stained by uranyl acetate and lead citrate, and observing by JEM1230 type projection electron microscope. The apparatuses are JEM1230 type projection electron microscope (Japanese Electronics Company), LEICA UCT type microtome (Germany Leica Company).

[2] = test system: cTnT^R141W transgenic dilated cardiomyopathy mice model; assay: Cardiac gene expression, RT-PCR method; conditions: cardiac tissue, long-term administration
Procedure: Effects on some cardiac gene expression of the mice model with dilated cardiomyopathy after a long-term administration of ginsenoside Rb1 (RT-PCR method)
1) Pulverize the tissue in liquid nitrogen, and then add 1 ml Trizol liquid into the 50-100 mg tissue;
2) Place the grinded liquid at RT for 5 min, add 0.2 ml chloroform into the grinded liquid, tightly cap the centrifuge tube, and violently vortex the centrifuge tube for 15 sec;
3) Remove 0.5 ml the upper transparent liquid into a new centrifuge tube, add 0.5 ml isopropanol, placed at RT for 10 min, and centrifugate at 4° C., 12000 g for 10 min;
4) Remove the supernatant, add 1 ml 75% ethanol and centrifugate at 4° C., 7500 g for 5 min;
5) Carefully remove the supernatant, then dried at RT for 5-10 min, and then dissolved in DEPC-treated water.
2. RT-PCR (Reverse Transcription—Polymerase Chain Reaction)
Add the above mixture into the tube in step 1), then incubated at 42° C. for 2 min;
3) Add 1 μl SuperScript, II RT at 42° C. for 50 min;
4) Placed on ice for 15 min;
5) Add 1 μl RNase H, then incubated at 37° C. for 20 min;
6) PCR reaction system is shown as follow:
7) General conditions of PCR are shown as follow. Pre-denaturation at 94° C. for […], and extension at 72° C. for […] And the annealing temperature, the annealing time, the primer sequences and the cyclic numbers are shown in Table 2.
wherein, Gapdh serves as the loading control.

[3] = test system: cTnT^R141W transgenic dilated cardiomyopathy mice model; assay: Cardiac microstructure, HE and Masson staining, light microscope; conditions: long-term administration, vs model group
Procedure: Effects on the cardiac microstructure of the mice model after a long-term administration of ginsenoside Rb1 (HE and Masson staining)
1) Fix the heart and treated in a standard pathological procedure.
3) Composite staining solution for 5 min;
4) Slightly washed by 0.2% acetic acid solution;
5) 5% phosphotungstic acid for 5-10 min;
6) Immersion cleaning twice by 0.2% acetic acid solution;
7) Brilliant green staining solution for 5 min, immersion cleaning twice by 0.2% acetic acid solution;
8) Ethanol dehydration, xylene transparent and sealed with neutral gum;
9) Observed under light microscope, collagen fibers show green, muscle fibers show red and red blood cells show nacarat.

SMILES: CC(C)=CCC[C@](C)(O[C@@H]1O[C@H](CO[C@@H]2O[C@H](CO)[C@@H](O)[C@H](O)[C@H]2O)[C@@H](O)[C@H](O)[C@H]1O)[C@H]1CC[C@]2(C)[C@@H]1[C@H](O)C[C@@H]1[C@@]3(C)CC[C@H](O[C@@H]4O[C@H](CO)[C@@H](O)[C@H](O)[C@H]4O[C@@H]4O[C@H](CO)[C@@H](O)[C@H](O)[C@H]4O)C(C)(C)[C@@H]3CC[C@]12C [Rb1, ginsenoside Rb1]
- intercalated disc structure [1]: clear
- mitochondrial structures [1]: most mitochondrial structures are normal
- myocytes structure [1]: clear structures
- sarcoplasmic reticulum [1]: slightly dilated
- expression of Cx40 [2]: increase
- expression of E-cadherin [2]: increase
- expression of Itga8 [2]: decrease
- expression of Itgbp [2]: decrease
- expression of P-cadherin [2]: increase
- expression of the fibroblast growth factor FGF ([2]; FGF2, 7, 8, 10): improve
- proliferation of interstitial collagen ([3]; Masson staining): significantly decreased
- hypertrophy and disordered arrangement of the myocytes ([3]; light microscope): improved
